US20100143449A1, “ANALGESIC COMPOSITION OF TOPICALLY APPLIED NONSTEROIDAL ANTIINFLAMMATORY DRUGS AND OPIOIDS” (priority 2007, published 2010)
“Also recorded” adds a separate entry of the source.

Tested on: Male Crl:CD-1 (ICR) BR mice
Assay: Radiant heat tail-flick assay after topical drug application to the tail
Assay type: in vivo
Details: for analgesia in % of mice: alone or together, 2 min; for time of maximal analgesic effect after topical application / topical analgesic effect (in words) / duration of analgesia: single drug; for duration of analgesia: FIG. 6: S-ibuprofen 4.8 mmol, diclofenac 3.5 mmol, 2 min exposure; for time of maximal analgesic effect after topical application / topical analgesic effect (in words) / ED 50 value, propylene glycol alone / ED 50 value, propylene glycol and lauric acid: topical; for ED 50 value, propylene glycol alone / ED 50 value, propylene glycol and lauric acid: tail immersed 2 min, tested immediately afterward; for ED 50 value, propylene glycol alone: vehicle propylene glycol alone; for ED 50 value, propylene glycol and lauric acid: vehicle propylene glycol and lauric acid (10:1)
Description: All in vivo studies were carried out in accordance with the Declaration of Helsinki and with the Guide for Care and Use of Laboratory Animals, as adopted and promulgated by the Estonian Põllumajandusministeerium. Male Crl:CD-1® (ICR) BR mice (20-25 g) were purchased from Charles River Laboratories (Germany) and were housed in a 12:12-h light-dark cycle temperature-controlled room with food and water freely available. Drugs were obtained from Sigma (St. Louis, Mo., USA). […] Briefly, the distal portion of the tail (2-3 cm) was immersed in a propylene glycol/dH2O (10:1 ratio) alone or propylene glycol and lauric acid combination (10:1) solution containing the indicated drugs for the stated time, usually 2 min.). Analgesia was defined quantitatively as tail-flick latency for an individual animal that was twice its baseline latency or greater using tail flick apparatus (Ugo Basile, Italy). […] ED50 values were determined with GraphPad Software.

[1] = FIG. 7A: morphine 0.15 mmol, diclofenac 0.9 mmol
[2] = FIG. 9A: methadone 0.7 mmol, diclofenac 0.9 mmol
[3] = FIG. 11B: hydrocodone 0.6 mmol, S-ibuprofen 1.2 mmol
[4] = FIG. 10A: methadone 0.7 mmol, S-ibuprofen 1.2 mmol

## O=C(O)Cc1ccccc1Nc1c(Cl)cccc1Cl [Diclofenac, diclofenac]
[1]
  analgesia in % of mice: 30%
[2]
  analgesia in % of mice: 30%
  time of maximal analgesic effect after topical application: 2 min
  topical analgesic effect (in words): dose dependent analgesia
  duration of analgesia: 90 min
  ED 50 value, propylene glycol alone: 3.3 mmol
  ED 50 value, propylene glycol and lauric acid: 1.1 mmol

## COc1ccc2c3c1O[C@H]1C(=O)CC[C@H]4[C@@H](C2)N(C)CC[C@]314 [Hydrocodone, hydrocodone]
[3]
  analgesia in % of mice: 20%
  topical analgesic effect (in words): most potent analgesic activity; also recorded: dose dependent response
  ED 50 value, propylene glycol alone: 1.6 mmol
  ED 50 value, propylene glycol and lauric acid: 1.2 mmol

## CCN(CC)CC(=O)Nc1c(C)cccc1C [Lidocaine, lidocaine]
  topical analgesic effect (in words): no differences in ED50; also recorded: significant and long acting analgesic effects
  ED 50 value, propylene glycol alone: 2.2 mmol

## CCC(=O)C(CC(C)N(C)C)(c1ccccc1)c1ccccc1 (stereo not shown) [Methadone, methadone]
  dose response shift to left of ED50 on addition of lauric acid to propylene glycol: 6.7 fold
  topical analgesic effect (in words): dose dependent (FIG. 4A) and naloxone sensitive
  ED 50 value, propylene glycol alone: 6.7 mmol
  ED 50 value, propylene glycol and lauric acid: 1.0 mmol
[2]
  analgesia in % of mice: 30%
[4]
  analgesia in % of mice: 25%

## CN1CC[C@]23c4c5ccc(O)c4O[C@H]2[C@@H](O)C=C[C@H]3[C@H]1C5 [Morphine, morphine]
[1]
  analgesia in % of mice: 20%
  ED 50 value, propylene glycol alone: 7.6 mmol

## CC(C)Cc1ccc([C@H](C)C(=O)O)cc1 [S-ibuprofen]
[4]
  analgesia in % of mice: 30%
[3]
  analgesia in % of mice: 30%
  time of maximal analgesic effect after topical application: 2 min
  topical analgesic effect (in words): dose dependent analgesia
  duration of analgesia: 90 min
  ED 50 value, propylene glycol alone: 9.3 mmol
  ED 50 value, propylene glycol and lauric acid: 2.1 mmol
